One substance from article PMC12781162, “Human Protein Z as the Second Known Heme‐Binding Protein from the Endogenous Blood Coagulation Inhibitor System” (Chembiochem, 2025) can be followed below.

The nature of this experiment: Substrate control of the chromogenic assay without thrombin. It counts as biochemical. Conditions: no thrombin; heme 1 – 1000 nM, PZ 10 nM; thrombin = 100 %. The protocol: Herein, an earlier established chromogenic thrombin amidolytic activity assay system was thus used, inspired by Hogg and Stenflo.^[ [19] ^, [28] ^] PZ (final concentration: 10 nM) was first incubated for 30 min with different heme concentrations (final concentrations: 1–1000 nM). Afterward, the heme–PZ mixture was incubated with thrombin for 10 min and the PZ–thrombin mixture (50 µL; final thrombin concentration: 15 nM) was transferred onto a 96‐well plate (Greiner Bio‐One GmbH). Finally, 5 µL of the substrate solution (H‐D‐Phe‐Pip‐Arg‐pNA x 2 HCl (S‐2238); final concentration: 273 µM) was added. Immediately, kinetic measurements at 405 nm were started, using an Infinite 200 Pro spectrophotometer. Heme only, thrombin only, and PZ‐heme only served as controls. For evaluation, the thrombin activity was determined as the change of absorbance per second and always normalized against the basal thrombin activity without PZ. Data were analyzed as the mean of triplicate and the IC50 was calculated by nonlinear regression (GraphPad Prism, version 10.5.0). […]
thrombinheme (0 nM)heme (1 nM) thrombin heme (3.16 nM)heme (10 nM)heme (31.6 nM)heme (100 nM)heme (316 nM)heme (1000 nM)PZ+heme (0 nM)PZ+heme (1 nM) PZ+heme (3.16 nM)PZ+heme (10 nM)PZ+heme (31.6 nM)PZ+heme (100 nM)PZ+heme (316 nM)PZ+heme (1000 nM)
Figure S5. […]

For the substance Hemin [heme], the “relative amidolytic activity toward substrate S-2238” value was ~ 0%.
